Common to all, as to type: biochemical
The target in one test is T1, Bovine insulin (Bos taurus, UniProt P01317).
T1 construct: purchased Sigma, St. Louis, Mo., USA
As to the kind of experiment: Insulin aggregation (turbidity at 360 nm) induced by DTT. The settings on record: Insulin 0.25 mg/mL, 25° C., DTT; compound 100×; standard deviation in parenthesis. As for the experimental part:
(§1) Bovine insulin [Sigma, St. Louis, Mo., USA] was dissolved in phosphate saline (PBS) (50 mM sodium biphosphate, 100 mM sodium chloride), pH 7.0, bovine alpha-lactalbumin [Sigma] in 50 mM sodium phosphate, 100 mM sodium chloride and 2 mM EDTA, pH 6.2, chicken egg white lysozyme [Sigma] in 100 mM Tris, 1 mM EDTA, pH 8.2, human acidic fibroblast growth factor (FGF-1) in 6.2 mM sodium biphosphate, 120 mM sodium chloride, pH 7.2, porcine somatotropin (pST) [provided by Pfizer, Inc., Groton, Conn., USA] in 10 mM phosphate, pH 6. 1, human apolactoferrin (HLF) [Sigma] in 20 mM HEPES, 154 mM NaCl, pH 7.4, porcine heart citrate synthase (CS) in 40 mM HEPES, 50 mM KCl, 10 mM (NH4)2SO4 mM potassium acetate, pH 7.8, and yeast alcohol dehydrogenase (ADH) [Sigma] in pH 7.0 PBS. Selection of buffer solutions was based on an extensive series of preliminary studies to obtain appropriate insolubilization kinetics as described below.
(§2) Copper O-phenanthroline (1,10-phenanthroline) was prepared by mixing copper sulfate hexahydrate [Fisher] and o-phenanthroline [Sigma] in a 1:2 ratio. 1 M Dithiothreitol (DTT) was prepared at pH 7.0 PBS. Polyethylene glycol (M.W. 8000, Union Carbide, Danbury, Conn., USA) (PEG) was prepared at 20 mg/mL in 10 mM phosphate, pH 6.1.
(§3) The following compounds were obtained from Sigma and used without further purification: oxalic acid, sodium malonate, succinic acid, glutaric acid, adipic acid, pimelic acid, suberic acid, azelaic acid, guanidine hydrochloride, ammonium formate, beta-alanine, 4-aminobutyric acid, 5-aminovaleric acid, 6-aminocaproic acid, 7-aminoheptanoic acid, hydrazine, ethylenediamine, 1,3-diaminopropane, 1,4-diaminobutane, 1,5-diaminopentane, 1,6-diaminohexane, 1,7-diaminoheptane, Glu-Glu, Glu-Lys, Lys-Lys, diglycine, triglycine, tetraglycine, pentaglycine, and hexaglycine. […] Triglycine and tetraglycine were dissolved in pH 8.6 PBS, while pentaglycine and hexaglycine were dissolved in pH 10.6 PBS.
(§4) Each was either dissolved in pH 7.0 PBS, or pH 6.1 10 mM phosphate, and adjusted to the same pH.
(§5) Protein aggregation was monitored for 1 hour at 360 nm using an HP8453 UV-visible spectrophotometer system [Hewlett Packard, Germany]. […] Insulin (0.25 mg/mL (4.39E-5 M)) aggregation was monitored at 25° C. after addition of potential inhibitors and 20 μL of 1 M DTT (1.27E-4 M). Alpha-lactabumin (0.4 mg/mL (2.82E-5 M)) aggregation was monitored at 37° C. in the presence of 20 μL of 1 M DTT (1.27E-4 M). Lysozyme (0.4 mg/mL (2.86E-5 M)) aggregation was monitored at 25° C. in the presence of 20 μL of 1 M DTT (1.27E-4 M). FGF-1 (50 μg/mL (3.12E-6 M)) aggregation was monitored at 50° C. Porcine somatotropin (1.27 mg/mL (5.76E-5 M)) aggregation was monitored at 60° C. in the presence of PEG 8000 (20 mg/mL) which was included to enhance the protein association process through a simple exclusion volume effect. HLF (0.4 mg/mL (5.23E-6 M)) aggregation was monitored at 43° C. in the presence of 1.27E-4 M DTT. Citrate synthase (96 μg/mL (9.80E-7 M)) aggregation was monitored at45° C. ADH (1 mg/mL (7.14E-6 M)) was monitored at 37° C. following the addition of 7.76E-5 M Cu(OP)2. Aggregation was compared to protein in the absence of the particular dipolar compound. After stirring, experiments were initiated by the addition of proteins followed by stressing reagents to 1 cm pathlength cuvettes employing a seven-position thermostatted sample holder that was cycled at 30-second intervals. Alternatively, a microtiter plate reader was employed under the same conditions in a 96 well format.
(§6) All optical density (OD)360nm versus time results were exported into Excel [Microsoft] for data analysis.

Test [1] deals with T2, chicken egg white lysozyme (Gallus gallus, UniProt P00698).
T2 construct: chicken egg white lysozyme [Sigma]; purchased Sigma; host or cells: egg white
As to the kind of experiment: Lysozyme aggregation (turbidity at 360 nm) induced by DTT. The settings on record: Lysozyme 0.4 mg/mL, 25° C., DTT; compound 1,000×; standard deviation in parenthesis. The procedure: as §1, §2, §3, §4, §5, §6

The target in another test is T3, bovine alpha-lactalbumin (Bos taurus, UniProt P00711).
T3 construct: purchased Sigma
T3 sequence (P00711 20-142): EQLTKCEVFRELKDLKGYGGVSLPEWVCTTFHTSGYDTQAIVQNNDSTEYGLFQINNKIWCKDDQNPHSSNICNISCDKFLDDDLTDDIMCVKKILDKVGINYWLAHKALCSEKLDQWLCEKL
The test can be described thus: Alpha-lactalbumin aggregation (turbidity at 360 nm) induced by DTT. The following applies: for inhibition index: α Lactalbumin 0.4 mg/mL, 37° C., DTT, compound 1,000×, standard deviation in parenthesis. The procedure:
as §1, §2, §3, §4, §5, §6

For test [2], the target named is human acidic fibroblast growth factor (FGF-1) (Homo sapiens, UniProt P05230). The test can be described thus: FGF-1 thermal aggregation (turbidity at 360 nm). The following applies: FGF-1 50 μg/mL, 50° C., standard deviation in parenthesis. The procedure: as §1, §3, §4, §5
(§7) All optical density (OD)360nm versus time results were exported into Excel [Microsoft] for data analysis. […] The maximum rate of change in OD versus time plots (r) was used to determine the rate of the reaction from the slope at this point.

Test [3] concerns the target T4, human apolactoferrin (HLF) (Homo sapiens, UniProt P02788).
T4 construct: purchased Sigma
As to the kind of experiment: HLF aggregation (turbidity at 360 nm) induced by DTT. The following applies: HLF 0.4 mg/mL, 43° C., DTT, head 10,000×, standard deviation in parenthesis. The procedure:
as §1, §2, §3, §4, §5, §6

Test [4] has as its target T5, porcine heart citrate synthase (CS) (Sus scrofa, UniProt P00889).
T5 construct: porcine heart citrate synthase (CS); from tissue; host or cells: porcine heart
T5 sequence (P00889 28-464): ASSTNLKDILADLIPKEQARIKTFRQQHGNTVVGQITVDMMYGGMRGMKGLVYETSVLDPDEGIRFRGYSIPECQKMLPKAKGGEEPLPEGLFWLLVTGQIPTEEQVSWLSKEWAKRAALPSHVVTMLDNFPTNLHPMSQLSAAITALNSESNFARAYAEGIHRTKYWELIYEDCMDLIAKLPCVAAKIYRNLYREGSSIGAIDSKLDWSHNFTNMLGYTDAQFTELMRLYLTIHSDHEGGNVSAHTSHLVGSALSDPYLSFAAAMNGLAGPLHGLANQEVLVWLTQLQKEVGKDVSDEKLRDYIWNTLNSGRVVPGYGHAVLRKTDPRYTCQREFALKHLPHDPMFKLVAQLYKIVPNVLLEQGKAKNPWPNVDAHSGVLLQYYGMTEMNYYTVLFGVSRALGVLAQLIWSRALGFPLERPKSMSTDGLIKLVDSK
As to the kind of experiment: Citrate synthase thermal aggregation (turbidity at 360 nm). The following applies: CS 96 μg/mL, 45° C., standard deviation in parenthesis. As for the experimental part: as §1, §3, §4, §5, §7

For test [5], the target named is T6, yeast alcohol dehydrogenase (ADH) (Saccharomyces cerevisiae, UniProt P00330).
T6 construct: purchased Sigma
T6 sequence (P00330 2-348 limits assumed): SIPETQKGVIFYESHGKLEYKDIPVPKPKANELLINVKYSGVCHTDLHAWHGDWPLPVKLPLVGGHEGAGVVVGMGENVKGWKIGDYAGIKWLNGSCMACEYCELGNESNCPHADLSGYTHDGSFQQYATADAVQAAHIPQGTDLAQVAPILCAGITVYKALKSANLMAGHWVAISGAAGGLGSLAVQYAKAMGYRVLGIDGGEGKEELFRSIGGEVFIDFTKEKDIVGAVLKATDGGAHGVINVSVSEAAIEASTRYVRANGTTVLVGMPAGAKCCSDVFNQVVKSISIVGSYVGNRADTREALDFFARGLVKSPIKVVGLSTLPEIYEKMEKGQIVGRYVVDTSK
As to the kind of experiment: ADH oxidation-induced aggregation (turbidity at 360 nm), Cu(OP)2. The following applies: ADH 1 mg/mL, 37° C., Cu(OP)2. The procedure:
as §1, §2, §3, §4, §5, §6

In test [6] the target is T7, porcine somatotropin (pST) (Sus scrofa, UniProt P01248).
T7 construct: purchased Pfizer, Inc., Groton, Conn., USA (provided, not bought)
T7 sequence (P01248 27-216): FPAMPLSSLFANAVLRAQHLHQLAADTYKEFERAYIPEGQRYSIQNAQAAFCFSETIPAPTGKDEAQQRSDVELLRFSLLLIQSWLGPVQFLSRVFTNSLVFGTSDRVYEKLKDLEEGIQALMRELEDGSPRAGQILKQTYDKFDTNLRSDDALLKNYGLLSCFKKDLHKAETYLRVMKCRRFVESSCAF
The test can be described thus: Porcine somatotropin aggregation (turbidity at 360 nm) with PEG 8000. The settings on record: pST 1.27 mg/mL, 60° C., compound 100X, standard deviation in parenthesis. The procedure: as §1, §2, §3, §4, §5, §6

Where [7] appears, read: compound 1,000X, standard deviation in parenthesis.
The mark [8] stands for this setting: compound 10,000X molar excess, Infinite = complete inhibition of aggregation over one hour.

Sequence of human acidic fibroblast growth factor (FGF-1) (P05230 whole entry): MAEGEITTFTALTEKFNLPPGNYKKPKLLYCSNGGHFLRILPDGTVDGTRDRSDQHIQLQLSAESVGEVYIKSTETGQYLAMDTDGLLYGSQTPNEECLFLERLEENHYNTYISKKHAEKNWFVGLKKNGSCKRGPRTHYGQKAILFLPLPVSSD
T2 sequence (P00698 19-147): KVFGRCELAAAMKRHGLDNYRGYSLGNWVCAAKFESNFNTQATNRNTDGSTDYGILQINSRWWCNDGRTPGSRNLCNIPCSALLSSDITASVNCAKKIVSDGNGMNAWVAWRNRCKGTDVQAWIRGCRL
T1 sequence (P01317 25-54 limits assumed): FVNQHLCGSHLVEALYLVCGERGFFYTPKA
T1 sequence (P01317 85-105 limits assumed): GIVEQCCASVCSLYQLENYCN
T4 sequence (P02788 20-710): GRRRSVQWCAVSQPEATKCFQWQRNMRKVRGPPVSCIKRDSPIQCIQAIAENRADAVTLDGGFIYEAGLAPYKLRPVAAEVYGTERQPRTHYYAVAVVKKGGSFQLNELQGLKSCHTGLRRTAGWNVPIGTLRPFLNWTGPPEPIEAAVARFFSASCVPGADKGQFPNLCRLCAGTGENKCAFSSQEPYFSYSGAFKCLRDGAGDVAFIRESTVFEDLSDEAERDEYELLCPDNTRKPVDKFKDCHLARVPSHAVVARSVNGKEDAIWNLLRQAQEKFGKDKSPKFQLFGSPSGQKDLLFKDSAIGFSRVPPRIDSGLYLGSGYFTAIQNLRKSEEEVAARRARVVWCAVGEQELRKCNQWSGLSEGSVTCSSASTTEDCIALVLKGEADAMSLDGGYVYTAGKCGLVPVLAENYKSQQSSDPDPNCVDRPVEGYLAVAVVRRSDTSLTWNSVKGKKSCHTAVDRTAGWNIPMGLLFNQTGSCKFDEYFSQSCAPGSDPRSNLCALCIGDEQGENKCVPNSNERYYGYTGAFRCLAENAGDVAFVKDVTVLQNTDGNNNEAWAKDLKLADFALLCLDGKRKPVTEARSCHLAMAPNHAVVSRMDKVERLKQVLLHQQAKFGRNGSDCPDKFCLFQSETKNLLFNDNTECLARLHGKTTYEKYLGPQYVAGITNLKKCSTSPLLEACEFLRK

“^+NH3-(Lys)^+-(Gly)n-(Glu)^−-COO^− [KGGGE]”: the inhibition index on Bovine insulin is 0.8 (0.1); in test [1], 3.4 (0.1); on bovine alpha-lactalbumin, 0.6 (0.1); in test [2] (compound 1,000×), 1.9 (0.2); in test [3] (first HLF column) it was 0.8 (0.1); in test [4] (compound 1,000X) it was 1.5 (0.1). The inhibition index is recorded as 1.2 (0.1) in test [5] (setting [7]) and 0.6 (0.1) in test [6].
In the case of “^+NH3-(Lys)^+-(Gly)n-(Glu)^−-COO^− [KGGGGE]”, the inhibition index at Bovine insulin is given as 1.0 (0.1); in test [1] it was 1.9 (0.5); on bovine alpha-lactalbumin, 0.5 (0.1); in test [2] (compound 1,000×), 1.9 (0.4); in test [3] (first HLF column), 0.8 (0.1); in test [4] (compound 1,000X) it was 1.8 (0.2). For the same molecule, the inhibition index was 1.4 (0.1) in test [5] (setting [7]) and 0.6 (0.1) in test [6].
On to hexaglycine, for which the inhibition index at Bovine insulin is given as 1.5 (0.7); in test [1], 0.0 (0.0); on bovine alpha-lactalbumin it was 4.2 (1.1); in test [3] (first HLF column) it was 1.7 (1.5); in test [4] (compound 1,000X) it was 0.5 (0.1); in test [5] (setting [7]), 1.7 (0.5). Moreover, the inhibition index in test [5] (setting [8]) was 20.3; in test [6] it was 0.7 (0.1). At bovine alpha-lactalbumin, the “inhibition of α-lactalbumin aggregation, in words” value is “Potent inhibitors”.
Take “KGGGGGE [^+NH3-(Lys)^+-(Gly)n-(Glu)^−-COO^−, n = 5]”: the inhibition index with Bovine insulin is 1.3 (0.3); in test [1] it was 1.5 (0.4); with bovine alpha-lactalbumin, 1.8 (0.2); in test [2] (compound 1,000×) it was 1.4 (0.3); in test [3] (first HLF column), 0.8 (0.1); in test [4] (compound 1,000X) it was 2.0 (0.2). Besides, the inhibition index in test [5] (setting [7]) is listed as 1.4 (0.2); in test [6], 0.5 (0.1).
With “^+NH3-(Lys)^+-(Gly)n-(Glu)^−-COO^− [KGE]”, the inhibition index on Bovine insulin was 0.6 (0.3); in test [1], 2.8 (0.8); on bovine alpha-lactalbumin, 0.3 (0.2); in test [2] (compound 1,000×) it was 1.7 (0.4); in test [3] (first HLF column) it was 0.9 (0.1); in test [4] (compound 1,000X) it was 1.2 (0.2). Besides, the inhibition index is listed as 1.3 (0.1) in test [5] (setting [7]) and 0.7 (0.0) in test [6].
Take “^+NH3-(Lys)^+-(Gly)n-(Lys)^+-CONH2 [^+NH3—(K)^+—(G)5—(K)^+—CONH2]”: the inhibition index was 1.7 (1.0) at Bovine insulin; 0.8 (0.4) in test [1]; 2.6 (1.1) on bovine alpha-lactalbumin; 3.3 (0.8) in test [2] (compound 1,000×); 1.5 (0.3) in test [3] (first HLF column); 0.8 (0.1) in test [4] (compound 1,000X). Also, in test [5] (setting [7]), the inhibition index is given as 1.5 (0.2). In addition, the “inhibition of α-lactalbumin aggregation, in words” value at bovine alpha-lactalbumin is reported as “Potent inhibitors”.
As for `Cl.N=C(N)N` [guanidine HCl, guanidine hydrochloride], the inhibition index is 0.9 (0.4) on Bovine insulin; 0.9 (0.2) in test [1]; 1.7 (0.6) at bovine alpha-lactalbumin; 1.2 (0.2) in test [2] (compound 1,000×); 2.8 (0.9) in test [2] (compound 10,000×); 0.9 (0.1) in test [3] (second HLF column). The inhibition index in test [4] (compound 10,000X) is reported as 0.6 (0.4); in test [4] (compound 50,000X) it was 0.4 (0.1); in test [5] (setting [8]), 0.2 (0.1).
Take “CH3—NH2-(Glu)^−-(Gly)n-(Glu)^−-COO^− [CH3—NH2—(E)^−—(G)2—(E)^−—COO^−]”: the inhibition index is recorded as 1.0 (0.2) on Bovine insulin; 0.8 (0.4) in test [1]; 0.4 (0.2) on bovine alpha-lactalbumin; 2.5 (0.6) in test [2] (compound 1,000×); 1.7 (0.2) in test [3] (first HLF column); 0.9 (0.2) in test [4] (compound 1,000X). In addition, the inhibition index in test [5] (setting [7]) is reported as 1.1 (0.1).

These data come from patent US20030125234A1, “Alteration of protein stability” (priority 2001, published 2003).
